Assays:
[1] = system: constitutive active colorectal cancer cell (CRC) Wnt pathway; test: HCT116 Super TopFlash cellular reporter assay (constitutive active Wnt pathway); assay type: cell-based; details: Homo sapiens, HCT-116, 36 h, HCT116 TOP reporter cells, luciferase expression, 36 hours incubation, 50 μM to 15 nM
How it was run: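 Luciferase luminescence served as the Wnt read-out after 36 h of compound treatment at 37 °C. Compound came from a pre-dilution series (50 μM down to 15 nM, 3.16-fold steps) in CAFTY buffer. Cells were stable HCT116 TOP reporter cells, with matched FOP-vector control cells tested in parallel, seeded a day earlier.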

[2] = system: HCT116 FOP control reporter cell line; test: HCT116 FOP control vector reporter assay (non-functional TCF elements); assay type: cell-based; details: Homo sapiens, HCT-116, 36 h, HCT116 FOP control reporter cells, luciferase expression, 36 hours incubation, 50 μM to 15 nM; read-out: HCT116 FOPFlash IC50
How it was run: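 Stable HCT116 line carrying the non-functional FOP luciferase construct, 10000 cells/well plated 24 hrs before. Compounds 50 μM to 15 nM (3.16-fold steps) in CAFTY buffer pH 7.4 with 2 mM Ca2+, 36 hours at 37° C; luciferase luminescence read.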

Compound	IC50 [1] [µM]	IC50 [2] [µM]
COc1ccc(C(=O)Nc2ccc(-c3ccccc3)cc2)cc1NC(=O)CN1CC(OC)C1 [Example 207, N-(biphenyl-4-yl)-4-methoxy-3-{[(3-methoxyazetidin-1-yl)acetyl]amino}benzamide]	2.6	≥ 50
COc1ccc(NC(=O)c2ccc(-c3ccc4c(c3)CCO4)cc2)cc1NC(=O)CN1CCOCC1 [Example 208, 4-(2,3-dihydro-1-benzofuran-5-yl)-N-{4-methoxy-3-[(morpholin-4-ylacetyl)amino]phenyl} benzamide]	3	≥ 50
COc1ccc(C(=O)Nc2ccc(-c3ccccc3)cc2)cc1N(C)C(=O)CN1CC2CCC(C1)O2 [Example 210, N-(biphenyl-4-yl)-4-methoxy-3-[methyl(8-oxa-3-azabicyclo[3.2.1]oct-3-ylacetyl)amino]benzamide]	3.6	≥ 50
COc1ccc(NC(=O)c2ccc(-c3ccccc3)cc2)cc1NC(=O)CN1C[C@@H](C)O[C@@H](C)C1 [Example 212, N-[3-({[(2R,6S)-2,6-dimethylmorpholin-4-yl]acetyl}amino)-4-methoxyphenyl]biphenyl-4-carboxamide]	4.35	≥ 50
COc1ccc(NC(=O)c2ccc(-c3ccccc3)cc2)cc1NC(=O)CN1CCOC[C@@H]1CCO [Example 213, N-[3-({[(3S)-3-(2-hydroxyethyl)morpholin-4-yl]acetyl}amino)-4-methoxyphenyl]biphenyl-4-carboxamide]	4.6	≥ 50
COc1ccc(NC(=O)c2ccc(-c3ccccc3)cc2)cc1NC(=O)CN1CCO[C@H](CO)C1 [Example 214, N-[3-({[(2S)-2-(hydroxymethyl)morpholin-4-yl]acetyl}amino)-4-methoxyphenyl]biphenyl-4-carboxamide]	4.9	≥ 50
COc1c(Cl)cc(C(=O)Nc2ccc(-c3ccccc3)cc2)cc1NC(=O)CN1CCN(C)CC1 [Example 215, N-(biphenyl-4-yl)-3-chloro-4-methoxy-5-{[(4-methylpiperazin-1-yl)acetyl]amino}benzamide]	0.772	18.9
COc1c(F)cc(C(=O)Nc2ccc(-c3ccccc3)cc2)cc1NC(=O)CN1CCN(C)CC1 [Example 216, N-(biphenyl-4-yl)-3-fluoro-4-methoxy-5-{[(4-methylpiperazin-1-yl)acetyl]amino}benzamide]	0.524	6.95
COCCOCCOc1ccc(C(=O)Nc2ccc(-c3ccccc3)cc2)cc1NC(=O)C1(N2CCOCC2)CC1 [Example 217, N-(biphenyl-4-yl)-4-[2-(2-methoxyethoxy}ethoxy)-3-({[1-(morpholin-4-yl)cyclopropyl]carbonyl}amino)benzamide]	0.027	1.63
COCCOCCOc1ccc(C(=O)Nc2ccc(-c3ccc(C)cc3)cc2)cc1NC(=O)C1(N2CCOCC2)CC1 [Example 221, 4-[2-(2-methoxyethoxy)ethoxy]-N-(4′-methylbiphenyl-4-yl)-3-({[1-(morpholin-4-yl)cyclopropyl]carbonyl}amino)benzamide]	1.1	≥ 50
O=C(Nc1ccc([N+](=O)[O-])cc1Cl)c1cc(Cl)ccc1O [Ref., niclosamide, reference compound]	1.38	3.1

Results, then the molecule that gave them:

IC50 [1] [µM]	IC50 [2] [µM]	Compound
2.48	≥ 50	COc1ccc(C(=O)Nc2ccc(-c3ccccc3)cc2)cc1NC(=O)C1(N2CCOCC2)CCC1 [Example 206, N-(biphenyl-4-yl)-4-methoxy-3-({[1-(morpholin-4-yl)cyclobutyl)carbonyl}amino)benzamide]
3.55	≥ 50	COc1ccc(NC(=O)c2ccc(-c3cccc(N)c3)cc2)cc1NC(=O)CN1CCOCC1 [Example 209, 3′-amino-N-{4-methoxy-3-[(morpholin-4-ylacetyl)amino]phenyl} biphenyl-4-carboxamide]
3.9	≥ 50	NC(=O)COc1ccc(NC(=O)c2ccc(-c3ccccc3)cc2)cc1NC(=O)CN1CCOCC1 [Example 211, N-{4-(2-amino-2-oxoethoxy)-3-[(morpholin-4-ylacetyl)amino]phenyl} biphenyl-4-carboxamide]
0.011	≥ 50	COCCOc1ccc(C(=O)Nc2ccc(-c3ccccc3)cc2)cc1NC(=O)C1(N2CCOCC2)CC1 [Example 218, N-(biphenyl-4-yl)-4-(2-methoxyethoxy)-3-({[1-(morpholin-4-yl)cyclopropyl]carbonyl)amino)benzamide]
0.0655	≥ 50	O=C(CN1CCN(C2CC2)CC1)Nc1cc(C(=O)Nc2ccc(-c3ccccc3)cc2)ccc1OCC1CC1 [Example 219, N-(biphenyl-4-yl)-4-(cyclopropylmethoxy)-3-{[(4-cyclopropylpiperazin-1-yl)acetyl]amino}benzamide]
0.16	≥ 50	O=C(CN1CCOCC1)Nc1cc(C(=O)Nc2ccc(-c3ccccc3)cc2)ccc1OCC1CC1 [Example 220, N-(biphenyl-4-yl)-4-(cyclopropylmethoxy)-3-[(morpholin-4-ylacetyl)amino)benzamide]
0.105	9	CN1CCN(CC(=O)Nc2cc(C(=O)Nc3ccc(-c4ccccc4)cc3)ccc2OCC2CC2)CC1 [Example 222, N-(biphenyl-4-yl)-4-(cyclopropylmethoxy)-3-{[(4-methylpiperazin-1-yl)acetyl]amino}benzamide]
